Results reported in patent US20090054403A1, “Treatment of Post-Traumatic Stress Disorder” (priority 2007, published 2009).
“Also recorded” adds a separate entry of the source.

How the values were obtained:
[1] = system: blood pressure, heart rate, motor activity; test: Radio-telemetry blood pressure, heart rate, motor activity in normotensive rats, 7 days; type: in vivo, normotensive Wistar rats (Crl:COBS(WI)BR); conditions: 10 mg/kg po
Protocol: Male Crl:COBS(WI)BR rats of 15 weeks old were used. Twenty-four rats were chronically implanted with telemetry implants (TA11PA-C40, Data Sciences, Inc., St. Paul, Minn.) for measurement of arterial blood pressure, heart rate and motor activity. The rat was anesthetized with pentobarbital sodium (60 mg/kg, ip) and its abdomen shaved. Under aseptic conditions, an incision was made on midline. The abdominal aorta was exposed, and cannulated with the catheter of a telemetry transmitter unit. After the transmitter was sutured to the abdominal musculature, the skin was closed. Each rat was allowed to recover for at least 2 weeks before being subjected to drug administration. Three days prior to the start of the experiment, the rats were randomly divided into 4 treatment groups: Vehicle (p.o.), Hydralazine (10 mg/kg, p.o.), nepicastat (30 mg/kg, p.o.), nepicastat (100 mg/kg, p.o.).
Systolic blood pressure (SBP), diastolic blood pressure (DBP), mean blood pressure (MBP), heart rate (HR), and motor activity (MA) were monitored. After the pre-dose values for these parameters were established, respective groups of rats received a 7 day daily treatment of vehicle, nepicastat or hydralazine.
Both nepicastat and hydralazine were prepared in water with traces of Tween 80. All doses were given orally to the rat in 10 ml/kg and were expressed as free base equivalents.
A computerized data collection system was used to continuously collect data on SBP, DBP, MBP, HR, and MA. Data on each rat were collected every 5 min. for 10 sec. These were then averaged hourly and standard errors of the mean (SE) calculated. In this report, only data on MBP, HR and MA were presented. […] Body weights were recorded daily.

parkinsonian symptoms = test: Parkinsonian clinical rating scale (CRS) in MPTP-lesioned monkeys; type: in vivo, squirrel monkeys (Saimiri sciureus)
Protocol: A total of 24 squirrel monkeys (Saimiri sciureus), fourteen females and ten males were used in this study. The twenty-four animals were randomly assigned to one of four treatment groups, with 6 animals per group. The groups consisted of the following (1) group A: placebo (2) group B: 1 mg/kg/day; (3) group C: 4 mg/kg/day; and (4) group D: 10 mg/kg/day. In Group B, one animal died acutely following MPTP-lesioning, and was not replaced.
Animals were lesioned by the administration of MPTP at a concentration of 2.0 mg/kg (free-base) via subcutaneous injection to achieve a parkinsonian state (see FIGS. 151-156). A post-MPTP lesioning behavioral assessment was carried out 2 to 4 weeks after the last MPTP-Iesioning. Locomotor activity was monitored by IRAM in 60-minute sessions for 3 to 5 days. Clinical behavior (CAS) was assessed by one to three individuals rating over a period of 3 to 5 days.
Animals were tested for response to L-Dopa and the efficacy of drug nepicastat. Testing was carried out 4 to 12 weeks after the last MPTP dose. Twenty-tour squirrel monkeys were randomly assigned to 4 groups; Group A (6 animals) received placebo (water) treatment; Group B (5 animals) received drug nepicastat at 1 mg/kg/day (0.5 mg/kg twice daily); Group C (6 animals) received 4 mg/kg/day (2 mg/kg twice daily); and Group D (6 animals) received 10 mg/kg/day (5 mg/kg twice daily).
L-Dopa was administered at a concentration of either 2.5, 5, or 7.5 mg/kg by oral gavage twice daily (at 10 am and 2 pm) for 7 consecutive days. Behavior was determined by IRAM and CRS. Clinical rating was carried out 60 to 90 minutes following the 10 am morning dose on the last 4 days of treatment. Raters (one to three individuals) were blinded to the different treatment groups. IRAM assessment were preformed for 90 minutes immediately following drug administration at 2 pm on the last 2 to 5 days of drug treatment. There was a minimum 2 day washout period between each treatment dose.
Drug nepicastat or water (as placebo) was administered for 12 days following a minimum 2 day washout after L-Dopa dosing. Drug was administered twice daily at 10 am and 2 pm by oral gavage. Behavior was rated by IRAM and CRS. The CRS was conducted in the morning, 60 to 90 minutes after the 10 am dose of nepicastat on the last 5 days of drug treatment. Raters (one to three individuals) were blinded to the different treatment groups. IRAM assessments were preformed for 90 minutes immediately following drug administration at 2 pm on the last 5 days of drug treatment.
Eight parkinsonian features were rated in each animal and the total score was derived from the sum of these eight features. […]

serum T3 and T4 levels = test: Thyroid function (serum T3, T4) in iodine-deficient rats, 10 days; type: in vivo, Sprague-Dawley rats; conditions: for effect on serum T3 and T4 levels: nepicastat 2.0 and 6.2 mg/kg b.i.d., methimazole 1 mg/kg b.i.d., po, 10 days
Protocol: Male Sprague-Dawley rats, weighing 180-200 grams, were fed an iodine deficient diet (Purina, 5891C, Lot 1478, 0.066±0.042 mg iodine/kg sample) ad libitum 14 days prior to treatment. Animals were weighed and randomly assigned to one of the following treatment groups (n=12 per group): Nepicastat at 2.0 mg/kg, Nepicastat at 6.2 mg/kg, R, Methimazole at 1 mg/kg, or vehicle at 1 ml/kg. Each group of rats was dosed orally in the evening and the following morning, approximately 12 hours apart, for 10 consecutive days.
Orbital blood samples were taken at day—3, 0, 3, 7, and 9 (day 0 was the first day of dosing). Serum samples were analyzed for T3 and T4 levels using a radioimmunoassay.
To statistically evaluate changes in T3 and T4 levels, a change from baseline was calculated from the day-3 time point. A non-parametric two-way within subject analysis of variance (ANOVA) was conducted. Also a one-way ANOVA was performed to detect if a significant difference from control occurred. Pairwise analyses between controls and each treatment group were carried out using Fisher's LSD strategy to control the experiment-wise error rate. For statistical analysis of catecholamine levels, a one-way ANOVA with factor DOSE was performed. Pairwise analyses between treated and controls at each dose were carried out using Fisher's LSD strategy to control the experiment-wise error rate.

[2] = Plasma levels of nepicastat and N-acetyl metabolite in dogs, 2 mg/kg b.i.d.; type: in vivo, beagle dogs; conditions: after nepicastat 2 mg/kg bid, any of the days
Protocol: Male Beagle dogs (Marshall farms, North Rose, N.Y.) weighing between 9-16 kg were used in the study. The animals were allowed water ad libitum and given food once daily at ˜10.00 AM. Animals were randomly assigned to one of the following treatment groups (n=8/group): placebo (empty capsule), or nepicastat at 2 mg/kg b.i.d (4 mg/kg/day). Each animal received 2 doses daily, morning and afternoon (8-10 hours apart). Daily blood samples (10 ml) were drawn 6 h after the AM dose for measurement of plasma levels of nepicastat and catecholamines. The blood was collected in tubes containing heparin and glutathione and centrifuged at −4° C. within 1 h of collection. The plasma was separated and divided into two samples, one for the measurement of plasma catecholamines and the other for analysis of nepicastat.
Plasma NE, DA and EPI were anaylysed by HPLC using electrochemical detection. Plasma concentration of nepicastat was determined by HPLC using electrochemical detection.

[3] = system: mean arterial pressure and heart rate; test: Heart rate and mean arterial pressure in restrained SHR with SCH-23390 pretreatment; type: in vivo, spontaneous hypertensive rats; conditions: 200 μg/kg iv, 15 min post-iv period
Source text: Male, spontaneous hypertensive rats (280-345 g; Charles River Labs, Kingston, N.Y.) were fasted overnight then anesthetized with ether. A femoral artery and femoral vein were cannulated with PE50 tubing for recording of blood pressure and administration of compounds, respectively. Animals were then placed in MAYO restrainers and their feet loosely taped to the restrainer. Heparinized saline (50 units sodium heparin/ml) was used to maintain patency of each cannula throughout the experiment. The following parameters were continuously recorded using Modular Instruments MI^2 BioReport™ software installed on an IBM personal computer: mean arterial pressure (MAP), heart rate (HR), and the change from baseline for each parameter at specified time points in the experiment.
All compounds were dissolved on the day of use. nepicastat was dissolved in deionized water (vehicle) to a free base concentration of 1 mg/ml. Oral dosing volume for nepicastat or vehicle was 10 ml/kg. SCH-23390 was dissolved in saline (vehicle) to a free base concentration of 0.2 mg/ml. […] or saline were administered intravenously as a bolus in a volume of 1.0 ml/kg followed by 0.2 ml flush of isotonic saline.
Following surgical preparation, each animal was allowed a minimum one hour recovery period. Animals were randomly assigned to four treatment groups: vehicle (iv)/vehicle (po); vehicle (iv)/nepicastat (po); SCH-23390 (iv)/vehicle (po); or SCH-23390 (iv)/nepicastat (po). Once animals were stabilized (minimum one hour), baseline blood pressure and heart rate was determined by taking an average of each parameter over a 15 min period of time. Once baseline blood pressure and heart rate were established, animals were dosed intravenously with either SCH-23390 (200 μg/kg) or vehicle (saline, 1 ml/kg). Fifteen minutes later, animals were orally dosed with either nepicastat (10 mg/kg) or vehicle (deionized water, 10 ml/kg).
Recorded parameters were measured 15 min prior to intravenous dosing to establish baseline blood pressure and heart rate. Recorded parameters were then measured at 5, 10, and 15 min following intravenous administration of SCH-23390 or vehicle. Following oral administration of nepicastat or vehicle, recorded parameters were measured at 15, 30, 60, 90, 120, 150, 180, 210, and 240 min.
At the end of the experiment, each animal was anesthetized with halothane and euthanized via decapitation. The cortex, left ventricle (apex), and mesenteric artery were dissected out, weighed, and fixed in 0.4 M perchloric acid. […] Blood pressure and heart rate were analyzed separately. The change from baseline for blood pressure and heart rate were analyzed by an analysis of variance (ANOVA) with effects for treatment, time, and their interaction. […]

blood pressure = test: Radio-telemetry blood pressure in SHR, up to 30 days; type: in vivo; conditions: 1 mg/kg, p.o.

NNc1nncc2ccccc12 [Hydralazine, reference compound]
time in which hypotensive effect subsided [1]: 10 h
maximal decrease in MBP ([1]; within 1 hr after dosing on day 1): −24 mmHg

N[C@@H](Cc1ccc(O)c(O)c1)C(=O)O [L-Dopa, reference compound]
CRS / parkinsonian symptoms compared to post-MPTP (pre-treatment) state (parkinsonian symptoms; L-Dopa 2.5 mg/kg): No groups of animals demonstrated significant improvement; also recorded: no significant effect
CRS / parkinsonian symptoms compared to post-MPTP (pre-treatment) state (parkinsonian symptoms; L-Dopa 5 and 7.5 mg/kg, except Group B at 5 and Group C at 7.5 mg/kg): significant improvement; also recorded: significant effect

Cn1cc[nH]c1=S [Methimazole, methimazole]
reduction in serum levels of T3 (serum T3 and T4 levels; day 3, 4 h post-dose): 31%
reduction in serum levels of T4 (serum T3 and T4 levels; day 3, 4 h post-dose): 46%
reduction in serum levels of T3 (serum T3 and T4 levels; day 7, 4 h post-dose): 42%
reduction in serum levels of T4 (serum T3 and T4 levels; day 7, 4 h post-dose): 58%
reduction in serum levels of T3 (serum T3 and T4 levels; day 9, 4 h post-dose): 44%
T4 levels vs vehicle (serum T3 and T4 levels; day nine): only marginally (p<0.10) lower
effect on serum T3 and T4 levels (serum T3 and T4 levels): significantly (p<0.05) lowered T3 levels on all treatment days
effect on serum T3 and T4 levels (serum T3 and T4 levels; listed as methimazole): significantly reduced

CC(=O)NCc1c[nH]c(=S)n1[C@H]1CCc2c(F)cc(F)cc2C1 [N-acetyl metabolite of nepicastat]
plasma levels of the N-acetyl metabolite [2]: No significant levels

CN1CCc2cc(Cl)c(O)cc2[C@@H](c2ccccc2)C1 [SCH-23390, reference compound]
decrease in mean arterial pressure [3]: 5±1 mmHg

CCOC(=O)[C@H](CCc1ccccc1)N[C@@H](C)C(=O)N1CCC[C@H]1C(=O)O [enalapril, reference compound]
effect on blood pressure, enalapril alone (blood pressure): failed to lower blood pressure
reduction in left ventricular mass, enalapril alone (blood pressure): did not occur
